# Experimental data from patent US12390441B2, “Immunomodulating o-het/aryl azalides” (Zoetis Services LLC, priority 2020, dated 2025).
# What was measured:
# upstream regulators = assay: Lung tissue RNA sequence analysis, ingenuity pathway analysis; format: in vivo, mice; conditions: M9 32 mg/kg (T03)
# Description: In one murine P. multocida intranasal challenge study, mice were administered tulathromycin (16 mg/kg; T02), M9 (32 mg/kg; T03), or ceftiofur (9 mg/kg; T04) by subcutaneous injection 18 hours after bacterial challenge (5×10^3 CFU/mouse) for lung tissue RNA sequence analysis. […] Data was analyzed based on the number of genes being modulated in the same direction that were associated with a given upstream regulator. An activation z-score of 2 or greater is considered significant and the direction change is indicated by +(activated) or −(inhibited).
# P. multocida = assay: Murine P. multocida intranasal challenge study, survival; format: in vivo, mice; conditions: 5×10^3 CFU/mouse; subcutaneous 18 hours after challenge; tulathromycin 16 mg/kg, M9 32 mg/kg, ceftiofur 9 mg/kg
# IL-1β = assay: Whole blood assay, LPS stimulation, MSD cytokine detection; format: cell-based, bovine; conditions: top dose 500 μM; cellular toxicity signal
# LCN2 = target: T1, LCN2 (Bos taurus, UniProt A0AAA9TIZ6); assay: Surface plasmon resonance (SPR), KD; format: binding; conditions: biologically relevant pH
# T1 sequence (A0AAA9TIZ6 1-200): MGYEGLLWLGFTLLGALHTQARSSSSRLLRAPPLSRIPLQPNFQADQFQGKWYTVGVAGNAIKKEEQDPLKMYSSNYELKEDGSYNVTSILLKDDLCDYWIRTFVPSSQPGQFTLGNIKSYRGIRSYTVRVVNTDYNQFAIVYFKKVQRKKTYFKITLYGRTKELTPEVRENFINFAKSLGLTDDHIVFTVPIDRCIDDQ
# From the text: (§1) In order to add further clarity to binding partner identification, surface plasma resonance (SPR) technology was used. […] These targets were unique to this drug as compared to gamithromycin, a macrolide antibiotic used in the treatment of BRD. Both targets fit the paradigm that the immunological mechanism of action is linked to the pathways that are both of key importance as being dysregulated in BRD and modulated by M9. LCN2 is expressed by neutrophils upon activation of toll-like receptors (TLRs) and is a component of the innate inflammatory response. […] Very little information exists to date on SLAMF9. It is a member of a family of signal adaptor proteins that is thought to lack signal transduction capabilities.
# (§2) KD is the equilibrium dissociation constant that was used to present the drug/target affinity. The identified targets associated with drug were measured by surface plasmon resonance (SPR) to define the KD.
# SLAMF9 = SLAMF9 (Bos taurus, UniProt E1BNF9); assay: Surface plasmon resonance (SPR), KD; format: binding; conditions: biologically relevant pH
# SLAMF9, sequence (E1BNF9 1-289): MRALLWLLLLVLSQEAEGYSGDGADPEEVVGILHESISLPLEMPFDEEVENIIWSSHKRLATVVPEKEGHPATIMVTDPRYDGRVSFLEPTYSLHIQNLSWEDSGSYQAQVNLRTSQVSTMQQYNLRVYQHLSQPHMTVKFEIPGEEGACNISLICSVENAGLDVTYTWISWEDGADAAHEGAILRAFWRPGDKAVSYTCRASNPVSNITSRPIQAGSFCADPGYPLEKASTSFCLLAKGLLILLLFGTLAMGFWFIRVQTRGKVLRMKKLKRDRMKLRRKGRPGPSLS
# From the text: as §1, §2
compound,measurement,setting,value
"CCCNC[C@]1(O)[C@H](C)O[C@@H](O[C@H]2[C@H](C)[C@@H](O[C@@H]3O[C@H](C)C[C@H](NC)[C@H]3O)[C@](C)(O)C[C@@H](C)CN[C@H](C)[C@@H](O)[C@](C)(O)[C@@H](CC)OC(=O)[C@@H]2C)C[C@@]1(C)OC [Example M9, (2R,3S,4R,5R,8R,10R,11R,12S,13S,14R)-2-ethyl-3,4,10-trihydroxy-13-(((2R,4R,5S,6S)-5-hydroxy-4-methoxy-4,6-dimethyl-5-((propylamino)methyl)-tetrahydro-2H-pyran-2-yl)oxy)-11-(((2S,3R,4S,6R)-3-hydroxy-6-methyl-4-(methylamino)tetrahydro-2H-pyran-2-yl)oxy)-3,5,8,10,12,14-hexamethyl-1-oxa-6-azacyclopentadecan-15-one]","activation z-score, IFNγ",upstream regulators,−5.759
same,"activation z-score, IL-1β",upstream regulators,−5.947
same,"activation z-score, STAT1",upstream regulators,−2.787
same,"activation z-score, TNF",upstream regulators,−4.669
same,"activation z-score, lipopolysaccharide",upstream regulators,−6.725
same,"activation z-score, poly rl:rC-RNA",upstream regulators,−5.289
same,unique genes up or down regulated (with significance),upstream regulators; total lung tissue,at least 226
same,Survival at Day 7,P. multocida,~50%
same,overstimulation of IL-1B,IL-1β,> 500 µM
same,"drug/target binding, LCN2",LCN2,direct binding targets
same,"drug/target binding, SLAMF9",SLAMF9,direct binding targets
